Test results: patent publication US4927829A, “Heterocyclic compounds and antiulcer agents” (Shionogi & Co., Ltd., priority 1988, dated 1990)
Where two headings read alike, the source gives them in different places.

What was measured:
[1] = tested on: stress ulcer; assay: Effect on stress ulcer (water-immersion restraint), oral; assay type: in vivo, SD rats; settings: Rattus norvegicus, read-out: Inhibition rate (stress ulcer)
Experimental: Male SD rats (body weight: 260-290 g) which had fasted for 24 hours were placed in a wire net-restraint cage and immersed up to the breast in water at 23° C. After 7 hours, the animals were sacrificed, and the stomach were excised. […] The test compound was suspended in 5% gum arabic solution and orally administered 30 minutes before the stress load.
Cimetidine was used as control drug.

[2] = tested on: mice; assay: Acute toxicity test, intraperitoneal, mice; assay type: in vivo; settings: n=5-6, up to 500 mg/kg
Source text: From the above-mentioned results it is evident that the antiulcer activity of the compounds (I) of this invention was about ten times as potent as that of control drug.

[3] = oral, 30 minutes before stress load, male SD rats, 23° C. water immersion, 7 hours
[4] = 30 mg/kg, oral, 30 minutes before stress load, male SD rats, 23° C. water immersion, 7 hours

Compound CN/C(=N/CCSCc1nc[nH]c1C)NC#N [Cimetidine, reference compound] has an inhibition in vivo at 30 mg/kg ([1]; po, 7 h) of 56%.

For O=C(Sc1cccn2c(=O)ccnc12)N1CCSCC1 [Example 7], the inhibition in vivo at 3 mg/kg [1, 3] was 46%, the inhibition in vivo at 10 mg/kg [1, 3] was 77% and the inhibition in vivo at 30 mg/kg [1, 4] was 71%. The “acute toxicity (dead cases)” value [2] was “no dead case even at a dose of 500 mg/kg”.

Compound O=C(Sc1cccn2c(=O)ccnc12)N1CCOCC1 [Example 9] has an inhibition in vivo at 3 mg/kg [1, 3] of 33%, an inhibition in vivo at 10 mg/kg [1, 3] of 66% and an inhibition in vivo at 30 mg/kg [1, 4] of 80%.

Work on CCOC(=O)c1cnc2c(SC(=O)N3CCCCC3)cccn2c1=O [Example 13] yielded an inhibition in vivo at 3 mg/kg [1, 3] of 34%, an inhibition in vivo at 10 mg/kg [1, 3] of 70% and an inhibition in vivo at 30 mg/kg [1, 4] of 81%.

Work on CCOC(=O)c1cnc2c(SC(=O)N3CCSC3)cccn2c1=O [Example 14] yielded an inhibition in vivo at 1 mg/kg ([1]; 1 mg/kg, oral, 30 minutes before stress load, male SD rats, 23° C. water immersion, 7 hours) of 45%, an inhibition in vivo at 3 mg/kg [1, 3] of 50% and an inhibition in vivo at 10 mg/kg [1, 3] of 68%. The inhibition in vivo at 30 mg/kg [1, 4] was 89% and the “acute toxicity (dead cases)” value [2] was “no dead case even at a dose of 500 mg/kg”.

CCOC(=O)c1cnc2c(SC(=O)N3CCCC3)cccn2c1=O [Example 16] was tested, and the inhibition in vivo at 3 mg/kg [1, 3] was 40%, the inhibition in vivo at 10 mg/kg [1, 3] was 62% and the inhibition in vivo at 30 mg/kg [1, 4] was 85%.

O=C(Sc1cccn2c(=O)ccnc12)N1CCSC1 [Example 17] showed an inhibition in vivo at 3 mg/kg [1, 3] of 74%, an inhibition in vivo at 10 mg/kg [1, 3] of 72% and an inhibition in vivo at 30 mg/kg [1, 4] of 70%. The “acute toxicity (dead cases)” value [2] was “no dead case even at a dose of 500 mg/kg”.

Work on O=C(Sc1cccn2c(=O)ccnc12)N1CCCCC1 [Example 18] yielded an inhibition in vivo at 3 mg/kg [1, 3] of 80% and an inhibition in vivo at 10 mg/kg [1, 3] of 76%.

Compound O=C(Sc1cccn2c(=O)ccnc12)N1CCCC1 [Example 19] has an inhibition in vivo at 10 mg/kg [1, 3] of 45%.
